PMC5555576, “Selective small-chemical inhibitors of protein arginine methyltransferase 5 with anti-lung cancer activity” (PLoS ONE, 2017)

Legend:
A549 cells = assay: Cellular permeability and stability by HPLC of cell extracts; type: in vitro ADME; conditions: for decrease of concentration inside the cells: 20 μM for 2 h, within 10 h after removal; for concentration inside cells compared with the medium: 2 h; for cell permeability: 2 hr in medium with compound
Experimental: Waters 2695 HPLC System and a C18 column (Symmetry, 3.6 x 75 mm) were used. The column was equilibrated with 10% acetonitrile and eluated with a linear gradient from 10% acetonitrile to 100% acetonitrile in 60 min. Compounds were dissolved in 10% acetonitrile and the purchased compounds (ChemBridge) were used as the standards.
We then determined whether the identified compounds are cell-permeable. Lung cancer A549 cells were cultured in medium containing various concentrations of the respective compound for 2 hr. Cells were harvested and washed with PBS. The compounds were extracted with ethyl acetate from cells and analyzed by HPLC with a C18 column using the purchased compound as the standard. Compounds C2, C5, C9 and C11 are cell-permeable (Fig 6A), which is consistent with their tPSAs <140 angstroms square (Table 1). […] We even noticed that the compound C5 crystalized inside the cells.
A, The cellular permeability of identified compounds. Lung cancer A549 cells were cultured in the presence of various concentrations of compounds for 2h and the compound concentrations in the cell were determined by HPLC chromatography with a C18 column. B, The cellular stability of identified compounds. Lung cancer A549 cells were cultured in the presence of compounds (20 μM) for 2 h and then the medium was removed. Cells were washed with the medium and cultured for additional 5 or 10 h after the compounds were removed. The compound concentrations in the cell were determined by HPLC chromatography with a C18 column. […] A549 cells were grown in the presence of DMSO or compound C5, C9 or C11 (20 μM). Histones were purified and analyzed by SDS-PAGE stained with Commassie blue (lanes 1–4, bottom) or by Western blot with anti-symmetric dimethyl arginine antibody (SYM10) (lanes 1–4, top). B-Raf was immunoprecipitated with anti-B-Raf antibody from whole cell lysates and submitted for Western blot analysis with anti-B-Raf (lanes 5 and 6, bottom) or anti-symmetric dimethyl arginine (lanes 5 and 6, top) antibody.

PC14 cells = assay: Cell growth by cell counting, PC14; type: cell-based; conditions: 2 days post treatment
Experimental: Lung cancer A549 (ATCC) and PC14 (ATCC) cells were cultured in minimum essential medium (Cellgro) with 10% (v/v) fetal bovine serum (FBS) (HyClone), 2% vitamins, 1% L-glutamine, 1% non-essential amino acids and 1% sodium pyruvate. For the treatment with identified compounds, cells (2, 000 cells/well) were seeded in 24-well plates in the medium containing 2% FBS. The fresh medium containing identified compounds was added 24 hours later. Cells were cultured for various times in a CO2 incubator and the cell numbers were counted. Each experiment was performed in triplicate.
A, Lung cancer A549 cells were cultured in the presence of various concentrations (μM) of identified compounds and growth inhibition was determined by cell counting at various time points. B, Lung cancer PC14 cells were cultured in the presence of DMSO or various concentrations of identified compounds and growth inhibition was determined by cell counting 2 days post the compound treatment. C, The serum concentrations of compound C9 after oral administration. Mice were sacrificed and blood samples were collected immediately before (0 h) and at 2, 4, 6 and 8h after compound administration.

[1] = Plasma concentrations after administration, LC-MS/MS; type: in vivo, BALB/c mice; conditions: mouse
Experimental: Male BALB/c mice (8–10 weeks old) were purchased from Charles River Laboratory and were randomized for compound administration. Chemical compounds were dissolved in 0.1 ml of 0.5% (w/v) carboxymethycellulose (Sigma-Aldrich) plus 0.5% Tween 80 (Fisher Scientific) and administrated by oral gavage at the dosage of 50 mg/kg or 100 mg/kg. Mice were sacrificed and blood samples were collected immediately before (n = 5) and at 2 (n = 5), 4 (n = 5), 6 (n = 5) or 8 (n = 8) h after compound administration. Plasma samples were sent to the Pharmaceutical Development Center at MD Anderson Cancer Center for LC-MS/MS assay to determine compound concentrations.
Supplementary file pone.0181601.s001.tif: S1 Fig The serum concentrations of compound C9. The chemical compound was dissolved in 5% DMSO-0.5% Tween 80. BALB/c mice (8–10 weeks old) were randomized and administrated the vehicle (0.1 ml) or compound C9 dissolved in the vehicle (0.1 ml) by intraperitoneal (I.P.) injection at the dosage of 25, 50 or 100 mg/kg. Mice were sacrificed and blood samples were collected immediately before (0 h, n = 5) and at 2 (n = 5), 4 (n = 5), 6 (n = 5) and 8 (n = 5) h after compound administration. Plasma samples were sent to the Pharmaceutical Development Center at MD Anderson Cancer Center for LC-MS/MS assay to determine compound concentrations. (TIF) Click here for additional data file.

[2] = Toxicity observed after intraperitoneal injection; type: in vivo, BALB/c mice; conditions: 100 mg/kg
Experimental: The obtained 3 compounds (C5, C9, and C11) have characteristics of Lipinski’s rule-of-five, which defines four physicochemical parameters found in a set of active drugs which made them into phase II clinical trials. We chose one compound (C9) to analyze its pharmacokinetic parameters in the mouse. BALB/c mice were randomized and administrated compound C9 (dissolved in 5% DMSO and 0.5% Tween 80) at dosages of 25, 50 and 100 mg/kg by intraperitoneal (I.P.) injection. Mice were sacrificed and blood samples were collected at different time points after administration of compounds. The compound concentrations in plasma samples were measured (S1 Fig). […] However, we observed the high toxicity of the compound in the mouse at the dosage of 100 mg/kg.

[3] = test system: CDK2 (Rb pT821) in A549 cells; assay: Western blot of Rb phosphorylation at T821; type: cell-based; conditions: 20 μM, 4 h
Source text: (§1) The retinoblastoma protein (Rb) is phosphorylated by CKDs in cells.
(§2) (TIF) Click here for additional data file.

[4] = test system: CDK4/6 (Rb pS811) in A549 cells; assay: Western blot of Rb phosphorylation at S811; type: cell-based; conditions: 20 μM, 4 h
Source text: as §1, §2

Row | Structure (SMILES) | decrease of concentration inside the cells (A549 cells) | concentration inside cells compared with the medium (A549 cells) | cell permeability (A549 cells) | PC14 cell growth inhibition (PC14 cells) | accumulation inside cells (A549 cells) [fold] | plasma concentration reached ([1]; intraperitoneal injection, 100 mg/kg) [µM] | maximal plasma concentration ([1]; oral gavage, 100 mg/kg) [µM] | toxicity in the mouse [2] | Rb phosphorylation at the site T821 by CDK2 [3] | Rb phosphorylation at the site S811 by CDK4/6 [4] | oral drug availability compared to C9 ([1]; oral gavage)
1 | CCn1c(=O)[nH]c2cc(C(=O)Nc3ccc(OC)cc3)ccc2c1=O [Compound C5] | about 2 folds | higher than those in the medium | cell-permeable | inhibited PC14 cell growth | – | – | – | – | – | – | –
2 | COc1ccc(Nc2ncnc3c2cnn3Cc2ccc(C)cc2)cc1 [Compound C9] | about 2 folds | higher than those in the medium | cell-permeable | inhibited PC14 cell growth | 5 | 38 | 5.8 | high toxicity | failed to inhibit | failed to inhibit | –
3 | Nc1cccc(Nc2ncnc3c2cnn3Cc2ccccc2)c1 [Compound C9a] | – | – | – | – | – | – | – | – | failed to inhibit | failed to inhibit | improved oral drug availability
4 | Cn1cc(C(c2ccc(O)c(O)c2O)c2cn(C)c3ccccc23)c2ccccc21 [Compound C11] | about 2 folds | higher than those in the medium | cell-permeable | inhibited PC14 cell growth | – | – | – | – | – | – | –
